Reference: US10072011B2, “Substituted bridged urea analogs as sirtuin modulators” (GlaxoSmithKline Intellectual Property (No.2) Limited, priority 2014, dated 2018)
Like-named read-outs stand apart in the source and are kept apart here.

Target: T1, SIRT1 (Homo sapiens, UniProt Q96EB6)
T1 sequence (Q96EB6 1-747): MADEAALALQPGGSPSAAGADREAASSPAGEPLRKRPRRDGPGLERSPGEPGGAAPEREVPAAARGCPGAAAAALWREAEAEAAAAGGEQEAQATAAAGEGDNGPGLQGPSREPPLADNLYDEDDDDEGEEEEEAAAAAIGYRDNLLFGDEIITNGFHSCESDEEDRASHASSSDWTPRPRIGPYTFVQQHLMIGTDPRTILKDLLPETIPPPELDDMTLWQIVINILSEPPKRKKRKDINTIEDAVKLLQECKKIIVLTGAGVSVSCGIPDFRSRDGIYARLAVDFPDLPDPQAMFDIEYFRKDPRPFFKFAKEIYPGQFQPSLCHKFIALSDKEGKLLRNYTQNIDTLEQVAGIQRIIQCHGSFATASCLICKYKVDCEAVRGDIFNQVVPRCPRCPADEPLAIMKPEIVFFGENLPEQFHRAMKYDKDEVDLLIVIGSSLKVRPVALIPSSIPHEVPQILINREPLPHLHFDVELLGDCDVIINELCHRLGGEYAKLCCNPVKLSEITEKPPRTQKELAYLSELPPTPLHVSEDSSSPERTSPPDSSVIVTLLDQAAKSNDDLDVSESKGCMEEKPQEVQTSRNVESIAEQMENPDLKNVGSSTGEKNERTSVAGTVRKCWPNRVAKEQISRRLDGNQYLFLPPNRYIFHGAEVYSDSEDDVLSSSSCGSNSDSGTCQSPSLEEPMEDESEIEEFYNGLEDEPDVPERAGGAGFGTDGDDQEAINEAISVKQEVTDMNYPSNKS
Test: Trp mass spectrometry assay of SIRT1 activation (Ac-R-H-K-K(Ac)-W-NH2 peptide)
Format: biochemical
Details: for Emax: 25 min, read-out: TRP MAX RESP (percent maximum fold activation)
How it was run: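 N-terminal His-tagged human SIRT1, expressed in BL21(DE3) and purified, was incubated 25 min with an acetylated Trp peptide and NAD plus test compound at varying concentrations, then quenched with formic acid. OAADPR or deacetylated peptide was quantified by mass spectrometry versus compound-free control; EC1.5 is the concentration giving 50% activity increase, with percent maximum activation.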

[1] = Trp peptide 0.5 μM, 120 μM βNAD+, 10 nM SIRT1, 25 min at 25° C., relative to control (100%)
[2] = Trp peptide 0.5 μM, 120 μM βNAD+, 10 nM SIRT1, 25 min at 25° C.

| Structure (SMILES) | Emax [1] [%] | TRP Activity (EC1.5, concentration of test compound that results in 150% activation of SIRT1) [2] | Emax [%] | TRP MAX RESP (percent maximum fold activation) [1] |
| --- | --- | --- | --- | --- |
| CC(C)(C#N)NC(=O)c1ccc2c(n1)N(C(=O)Nc1ccccn1)[C@H]1CCN2C1 [Example 104, (4S)—N7-(2-cyanopropan-2-yl)-N5-(pyridin-2-yl)-3,4-dihydro-1,4-methanopyrido[2,3-b][1,4]diazepine-5,7(2H)-dicarboxamide] | > 150 | B (EC1.5 1-25 μM) |  |  |
| C[C@@H](NC(=O)c1ccc2c(n1)N(C(=O)Nc1ccc(OC[C@H](O)CO)nn1)[C@H]1CCN2C1)C(F)(F)F [Example 193, (4S)—N5-(6-((R)-2,3-dihydroxypropoxy)pyridazin-3-yl)-N7-((R)-1,1,1-trifluoropropan-2-yl)-3,4-dihydro-1,4-methanopyrido[2,3-b][1,4]diazepine-5,7(2H)-dicarboxamide] | > 150 | A (EC1.5<1 μM) |  |  |
| O=C(NC1CC1)c1ccc2c(n1)N(C(=O)Nc1cc3c(cn1)OCCC3)[C@H]1CCN2C1 [Example 160, (4S)—N7-cyclopropyl-N5-(3,4-dihydro-2H-pyrano[2,3-c]pyridin-6-yl)-3,4-dihydro-1,4-methanopyrido[2,3-b][1,4]diazepine-5,7(2H)-dicarboxamide] | > 150 | A (EC1.5<1 μM) |  |  |
| C[C@@H](NC(=O)c1ccc2c(n1)N(C(=O)Nc1ccncn1)[C@H]1CCN2C1)C(F)(F)F [Example 66, (4S)—N5-(pyrimidin-4-yl)-N7-((R)-1,1,1-trifluoropropan-2-yl)-3,4-dihydro-1,4-methanopyrido[2,3-b][1,4]diazepine-5,7(2H)-dicarboxamide] | > 150 | A (EC1.5<1 μM) |  |  |
| O=C(NCC(F)(F)F)c1ccc2c(n1)N(C(=O)Nc1cc3c(cn1)OCCC3)[C@H]1CCN2C1 [Example 133, (4S)—N5-(3,4-dihydro-2H-pyrano[2,3-c]pyridin-6-yl)-N7-(2,2,2-trifluoroethyl)-3,4-dihydro-1,4-methanopyrido[2,3-b][1,4]diazepine-5,7(2H)-dicarboxamide] | > 150 | A (EC1.5<1 μM) |  |  |
| C[C@@H](CO)NC(=O)c1ccc2c(n1)N(C(=O)Nc1ccccn1)[C@H]1CCN2C1 [Example 53, (4S)—N7-((S)-1-hydroxypropan-2-yl)-N5-(pyridin-2-yl)-3,4-dihydro-1,4-methanopyrido[2,3-b][1,4]diazepine-5,7(2H)-dicarboxamide] | > 150 | B (EC1.5 1-25 μM) |  |  |
| C[C@@H](NC(=O)c1ccc2c(n1)N(C(=O)Nc1cc(C(=O)NC3CC3)ccn1)[C@H]1CCN2C1)C(F)(F)F [Example 305, (4S)—N5-(4-(cyclopropylcarbamoyl)pyridin-2-yl)-N7-((R)-1,1,1-trifluoropropan-2-yl)-3,4-dihydro-1,4-methanopyrido[2,3-b][1,4]diazepine-5,7(2H)-dicarboxamide] | < 150 | A (EC1.5<1 μM) |  |  |
| O=C(Nc1ccc(Cl)cn1)N1c2nc(S(=O)(=O)NCC(F)(F)F)ccc2N2CC[C@H]1C2 [Example 277, (4S)—N-(5-chloropyridin-2-yl)-7-(N-(2,2,2-trifluoroethyl)sulfamoyl)-3,4-dihydro-1,4-methanopyrido[2,3-b][1,4]diazepine-5(2H)-carboxamide] |  | C (EC1.5>25 μM) | < 150 |  |
| Cn1ncc2c(NC(=O)N3c4nc(C(=O)NCC(F)(F)F)ccc4N4CC[C@H]3C4)cccc21 [Example 220, (4S)—N5-(1-methyl-1H-indazol-4-yl)-N7-(2,2,2-trifluoroethyl)-3,4-dihydro-1,4-methanopyrido[2,3-b][1,4]diazepine-5,7(2H)-dicarboxamide] | > 150 | B (EC1.5 1-25 μM) |  |  |
| O=C(NCC(F)(F)F)c1ccc2c(n1)N(C(=O)Nc1cnccn1)[C@H]1CCN2C1 [Example 63, (4S)—N5-(pyrazin-2-yl)-N7-(2,2,2-trifluoroethyl)-3,4-dihydro-1,4-methanopyrido[2,3-b][1,4]diazepine-5,7(2H)-dicarboxamide] |  | A (EC1.5<1 μM) | > 150 |  |
| Cc1ccc2c(NC(=O)N3c4nc(C(=O)N[C@H](C)C(F)(F)F)c(Cl)cc4N4CC[C@H]3C4)n[nH]c2n1 [Example 316, (4S)-8-chloro-N5-(6-methyl-1H-pyrazolo[3,4-b]pyridin-3-yl)-N7-((R)-1,1,1-trifluoropropan-2-yl)-3,4-dihydro-1,4-methanopyrido[2,3-b][1,4]diazepine-5,7(2H)-dicarboxamide] | < 150 | B (EC1.5 1-25 μM) |  |  |
| O=C(NCCC(F)(F)F)c1ccc2c(n1)N(C(=O)Nc1ccccn1)[C@H]1CCN2C1 [Example 124, (4S)—N5-(pyridin-2-yl)-N7-(3,3,3-trifluoropropyl)-3,4-dihydro-1,4-methanopyrido[2,3-b][1,4]diazepine-5,7(2H)-dicarboxamide] | > 150 | A (EC1.5<1 μM) |  |  |
| O=C(NC1CC1(F)F)c1ccc2c(n1)N(C(=O)Nc1cccnn1)[C@H]1CCN2C1 (single isomer, unassigned) [Example 271] |  | B (EC1.5 1-25 μM) |  | A (Fold activation≥150%) |
| CCC(NC(=O)c1ccc2c(n1)N(C(=O)Nc1ccccn1)[C@H]1CCN2C1)C(F)(F)F (stereo in doubt) [Example 61, (4S)—N5-(pyridin-2-yl)-N7-((S)-1,1,1-trifluorobutan-2-yl)-3,4-dihydro-1,4-methanopyrido[2,3-b][1,4]diazepine-5,7(2H)-dicarboxamide] | > 150 | A (EC1.5<1 μM) |  |  |
| CC(C)[C@@H](C)NC(=O)c1ccc2c(n1)N(C(=O)Nc1ccccn1)[C@H]1CCN2C1 [Example 45, (4S)—N7-((R)-3-methylbutan-2-yl)-N5-(pyridin-2-yl)-3,4-dihydro-1,4-methanopyrido[2,3-b][1,4]diazepine-5,7(2H)-dicarboxamide] | > 150 | A (EC1.5<1 μM) |  |  |
| O=C(NCCF)c1ccc2c(n1)N(C(=O)Nc1ccccn1)[C@H]1CCN2C1 [Example 39, (4S)—N7-(2-fluoroethyl)-N5-(pyridin-2-yl)-3,4-dihydro-1,4-methanopyrido[2,3-b][1,4]diazepine-5,7(2H)-dicarboxamide] | > 150 | A (EC1.5<1 μM) |  |  |
| C[C@@H](NC(=O)c1ccc2c(n1)N(C(=O)Nc1ncc3cc[nH]c3n1)[C@H]1CCN2C1)C(F)(F)F [Example 62, (4S)—N5-(7H-pyrrolo[2,3-d]pyrimidin-2-yl)-N7-((R)-1,1,1-trifluoropropan-2-yl)-3,4-dihydro-1,4-methanopyrido[2,3-b][1,4]diazepine-5,7(2H)-dicarboxamide] | > 150 | A (EC1.5<1 μM) |  |  |
| CC(NC(=O)c1ccc2c(n1)N(C(=O)Nc1ccccn1)[C@H]1CCN2C1)C1CC1 (single isomer, unassigned) [Example 100] | > 150 | A (EC1.5<1 μM) |  |  |
| Cc1cc(C(=O)N[C@H](C)C(F)(F)F)nc2c1N1CC[C@@H](C1)N2C(=O)Nc1cc(OC[C@H](O)CO)ccn1 [Example 292, (4S)—N5-(4-((R)-2,3-dihydroxypropoxy)pyridin-2-yl)-9-methyl-N7-((R)-1,1,1-trifluoropropan-2-yl)-3,4-dihydro-1,4-methanopyrido[2,3-b][1,4]diazepine-5,7(2H)-dicarboxamide] | < 150 | A (EC1.5<1 μM) |  |  |
